# Experimental data as given in patent US20190256474A1, “N-PHENYL-2-(3-PHENYL-6-OXO-1,6-DIHYDROPYRIDAZIN-1-YL)ACETAMIDE DERIVATIVES FOR TREATING CYSTIC FIBROSIS” (Proteostasis Therapeutics, Inc., priority 2016, published 2019).
# Molecular target: T1, ΔF508-CFTR (Homo sapiens, UniProt P13569, DEL508-508)
# T1 construct: Primary lung epithelial cells homozygous for the Cystic Fibrosis-causing ΔF508 mutation were differentiated; endogenous in cells; host or cells: primary human bronchial epithelial cells (hBE), ΔF508/ΔF508
# T1 sequence (P13569 with tags, fused parts or gaps DEL508-508): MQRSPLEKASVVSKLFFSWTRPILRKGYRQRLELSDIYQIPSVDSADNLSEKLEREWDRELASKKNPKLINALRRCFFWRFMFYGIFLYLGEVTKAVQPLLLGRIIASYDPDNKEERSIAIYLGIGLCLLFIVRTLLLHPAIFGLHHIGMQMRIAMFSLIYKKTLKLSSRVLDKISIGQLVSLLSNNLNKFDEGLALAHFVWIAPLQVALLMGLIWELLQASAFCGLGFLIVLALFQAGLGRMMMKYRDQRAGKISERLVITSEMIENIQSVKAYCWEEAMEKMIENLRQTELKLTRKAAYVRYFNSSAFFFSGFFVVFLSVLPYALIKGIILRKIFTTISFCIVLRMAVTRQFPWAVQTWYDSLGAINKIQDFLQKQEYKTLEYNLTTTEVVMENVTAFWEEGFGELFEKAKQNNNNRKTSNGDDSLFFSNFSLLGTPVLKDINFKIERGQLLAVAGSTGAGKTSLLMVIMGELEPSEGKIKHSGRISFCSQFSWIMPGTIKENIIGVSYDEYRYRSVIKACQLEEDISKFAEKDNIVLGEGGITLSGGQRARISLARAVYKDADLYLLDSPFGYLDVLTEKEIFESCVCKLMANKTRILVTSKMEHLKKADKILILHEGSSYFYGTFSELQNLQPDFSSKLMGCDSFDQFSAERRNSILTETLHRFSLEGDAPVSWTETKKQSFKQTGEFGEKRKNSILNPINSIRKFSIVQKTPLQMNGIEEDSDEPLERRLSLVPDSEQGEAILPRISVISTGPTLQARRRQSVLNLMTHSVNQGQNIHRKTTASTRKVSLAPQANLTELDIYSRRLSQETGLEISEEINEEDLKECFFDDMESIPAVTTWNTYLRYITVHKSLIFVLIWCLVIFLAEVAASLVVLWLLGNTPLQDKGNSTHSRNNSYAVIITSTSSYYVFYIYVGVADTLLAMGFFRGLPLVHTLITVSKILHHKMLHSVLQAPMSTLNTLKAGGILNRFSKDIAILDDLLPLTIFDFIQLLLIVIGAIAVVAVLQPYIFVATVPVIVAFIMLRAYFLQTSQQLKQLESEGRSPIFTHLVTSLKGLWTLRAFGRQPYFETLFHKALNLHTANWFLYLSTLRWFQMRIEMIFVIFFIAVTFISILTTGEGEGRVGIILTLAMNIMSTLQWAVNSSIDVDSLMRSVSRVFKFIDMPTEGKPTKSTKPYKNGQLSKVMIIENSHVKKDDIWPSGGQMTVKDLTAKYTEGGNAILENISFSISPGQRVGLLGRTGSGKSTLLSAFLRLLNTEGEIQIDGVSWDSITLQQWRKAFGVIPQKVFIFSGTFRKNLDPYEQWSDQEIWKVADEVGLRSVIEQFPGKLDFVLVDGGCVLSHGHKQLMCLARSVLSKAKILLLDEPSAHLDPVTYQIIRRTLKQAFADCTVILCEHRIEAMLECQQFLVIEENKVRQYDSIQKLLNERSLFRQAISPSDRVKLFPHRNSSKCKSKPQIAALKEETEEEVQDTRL
# Assay: hBE equivalent current (Ieq) assay, CFTR activity
# Type: cell-based
# Conditions: relative to a CFTR amplifier at 3 μM, ΔF508 homozygous hBE, 24 h treatment; for Activity 3 μM: compound at 3 μM; for Activity 10 μM: compound at 10 μM
# Description: Primary lung epithelial cells homozygous for the Cystic Fibrosis-causing ΔF508 mutation were differentiated for a minimum of 4 weeks in an air-liquid interface on Costar 24 well HTS filter plates prior to the equivalent current (Ieq) measurements. Cells were apically mucus-washed for 30 minutes 24 h prior to treatment with compounds. The basolateral media was removed and replaced with media containing the compound of interest diluted to its final concentration from DMSO stocks. Treated cells were incubated at 37° C. and 5% CO2 for 24 hours. At the end of the treatment period, the media was changed to the Ieq experimental solution for 2 hours before the experiment and plates are maintained in a CO2-free incubator during this period. The plates containing the cells were then placed in pre-warmed heating blocks at 36° C.±0.5 for 15 minutes before measurements are taken. The transepithelial voltage (VT) and conductance (GT) were measured using a custom 24 channel current clamp (TECC-24) with 24 well electrode manifold. The Ieq assay measurements were made following additions with standardized time periods:
# 1. The baseline VT and GT values were measured for approximately 20 minutes.
# 2. Benzamil was added to block ENaC for 15 minutes.
# 3. Forskolin plus VX-770 were added to maximally activate ΔF508-CFTR for 27 minutes.
# 4. Bumetanide was added to inhibit the NaK2Cl cotransporter and shut-off secretion of chloride.
# The activity data captured was the area under the curve (AUC) for the traces of the equivalent chloride current. The AUC was collected from the time of the forskolin/VX-770 addition until the inhibition by bumetanide addition. Correction in response to compound treatment was scored as the increase in the AUC for compound-treated samples over that of vehicle-treated samples.
# The results are shown below in Table 1. + indicates activity <150% of a CFTR amplifier with compound at concentration shown and amplifier at 3 μM; ++ indicates activity >150% of a CFTR amplifier with compound at concentration shown and amplifier at 3 μM.
SMILES,Activity 3 μM,Activity 10 μM
"COc1cccc(-c2ccc(=O)n(C(C)C(=O)Nc3cc(C(F)(F)F)cc(C(F)(F)F)c3)n2)c1 (stereo not shown) [Compound 41, N-(3,5-Bis(trifluoromethyl)phenyl)-2-(3-(3-methoxyphenyl)-6-oxopyridazin-1(6H)-yl)propanamide]",++ (activity >150% of a CFTR amplifier with compound at concentration shown and amplifier at 3 μM),++ (activity >150% of a CFTR amplifier with compound at concentration shown and amplifier at 3 μM)
"COc1cccc(-c2ccc(=O)n(C(C)C(=O)Nc3ccc(C(F)(F)F)cc3F)n2)c1 (stereo not shown) [Compound 42, N-(2-Fluoro-4-(trifluoromethyl)phenyl)-2-(3-(3-methoxyphenyl)-6-oxopyridazin-1(6H)-yl)propanamide]",++ (activity >150% of a CFTR amplifier with compound at concentration shown and amplifier at 3 μM),++ (activity >150% of a CFTR amplifier with compound at concentration shown and amplifier at 3 μM)
"COc1cccc(-c2ccc(=O)n(C(C)C(=O)Nc3ccc(C(F)(F)F)c(F)c3)n2)c1 (stereo not shown) [Compound 43, N-[3-Fluoro-4-(trifluoromethyl)phenyl]-2-[3-(3-methoxyphenyl)-6-oxo-1,6-dihydropyridazin-1-yl]propanamide]",++ (activity >150% of a CFTR amplifier with compound at concentration shown and amplifier at 3 μM),++ (activity >150% of a CFTR amplifier with compound at concentration shown and amplifier at 3 μM)
"COc1cccc(-c2ccc(=O)n(C(C)C(=O)Nc3ccc(C#N)cc3)n2)c1 (stereo not shown) [Compound 44, N-(4-Cyanophenyl)-2-(3-(3-methoxyphenyl)-6-oxopyridazin-1(6H)-yl)propanamide]",+ (activity <150% of a CFTR amplifier with compound at concentration shown and amplifier at 3 μM),+ (activity <150% of a CFTR amplifier with compound at concentration shown and amplifier at 3 μM)
"COc1cccc(-c2ccc(=O)n(C(C)C(=O)Nc3cccc(C#N)c3)n2)c1 (stereo not shown) [Compound 45, N-(3-Cyanophenyl)-2-(3-(3-methoxyphenyl)-6-oxopyridazin-1(6H)-yl)propanamide]",+ (activity <150% of a CFTR amplifier with compound at concentration shown and amplifier at 3 μM),+ (activity <150% of a CFTR amplifier with compound at concentration shown and amplifier at 3 μM)
"COc1cccc(-c2ccc(=O)n(C(C)C(=O)Nc3cc(Cl)cc(Cl)c3)n2)c1 (stereo not shown) [Compound 46, N-(3,5-Dichlorophenyl)-2-(3-(3-methoxyphenyl)-6-oxopyridazin-1(6H)-yl)propanamide]",++ (activity >150% of a CFTR amplifier with compound at concentration shown and amplifier at 3 μM),++ (activity >150% of a CFTR amplifier with compound at concentration shown and amplifier at 3 μM)
"COc1cccc(-c2ccc(=O)n(C(C)C(=O)Nc3ccc(C(F)(F)F)c(C(F)(F)F)c3)n2)c1 (stereo not shown) [Compound 47, N-[3,4-Bis(trifluoromethyl)phenyl]-2-[3-(3-methoxyphenyl)-6-oxo-1,6-dihydropyridazin-1-yl]propanamide]",++ (activity >150% of a CFTR amplifier with compound at concentration shown and amplifier at 3 μM),++ (activity >150% of a CFTR amplifier with compound at concentration shown and amplifier at 3 μM)
"CCOc1cccc(-c2ccc(=O)n(C(C)C(=O)Nc3ccc(C(F)(F)F)cc3)n2)c1 (stereo not shown) [Compound 48, 2-[3-(3-Ethoxyphenyl)-6-oxo-1,6-dihydropyridazin-1-yl]-N-[4-(trifluoromethyl)phenyl]propanamide]",++ (activity >150% of a CFTR amplifier with compound at concentration shown and amplifier at 3 μM),++ (activity >150% of a CFTR amplifier with compound at concentration shown and amplifier at 3 μM)
